Test results as given in ChEMBL document CHEMBL3774360, “Potent multitarget FAAH-COX inhibitors: Design and structure-activity relationship studies” (Eur J Med Chem, 2016).
Active and inactive are the calls of the source. The rule behind the calls is not given here.

Tests used:
[1] = species: Homo sapiens; assay: Binding affinity to P2Y receptor (unknown origin) at 10 uM by radioligand binding assay
[2] = molecular target: Estrogen receptor (Homo sapiens) (UniProt P03372); assay: Binding affinity to human estrogen receptor at 10 uM by radioligand binding assay
Estrogen receptor (Homo sapiens), sequence (P03372 whole entry): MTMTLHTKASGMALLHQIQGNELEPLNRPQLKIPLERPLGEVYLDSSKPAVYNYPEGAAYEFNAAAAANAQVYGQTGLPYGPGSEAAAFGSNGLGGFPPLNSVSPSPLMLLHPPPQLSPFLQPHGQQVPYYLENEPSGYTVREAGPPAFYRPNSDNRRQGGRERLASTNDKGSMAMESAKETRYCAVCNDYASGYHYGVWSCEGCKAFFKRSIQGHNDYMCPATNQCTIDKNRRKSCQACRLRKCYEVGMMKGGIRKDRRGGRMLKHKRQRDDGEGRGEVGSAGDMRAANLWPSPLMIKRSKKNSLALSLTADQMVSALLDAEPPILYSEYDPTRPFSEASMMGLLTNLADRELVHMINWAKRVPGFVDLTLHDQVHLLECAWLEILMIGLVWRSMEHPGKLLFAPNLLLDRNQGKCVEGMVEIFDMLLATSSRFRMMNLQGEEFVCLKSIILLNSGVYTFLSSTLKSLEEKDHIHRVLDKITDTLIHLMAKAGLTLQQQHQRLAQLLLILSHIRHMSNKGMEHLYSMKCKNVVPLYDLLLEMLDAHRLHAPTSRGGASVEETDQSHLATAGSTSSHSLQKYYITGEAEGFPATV

[3] = molecular target: Thyrotropin-releasing hormone receptor (Homo sapiens) (UniProt P34981); assay: Binding affinity to human TRH1 receptor at 10 uM by radioligand binding assay
[4] = species: Homo sapiens; assay: Binding affinity to L-type calcium channel dihydropyridine binding site (unknown origin) at 10 uM by radioligand binding assay
[5] = tested on: Voltage-gated potassium channel; assay: Binding affinity to voltage-gated potassium channel (unknown origin) at 10 uM by radioligand binding assay; assay type: protein assay; conditions: human
[6] = species: Homo sapiens; assay: Binding affinity to small conductance calcium-activated potassium channel (unknown origin) at 10 uM by radioligand binding assay
[7] = molecular target: Sodium-dependent noradrenaline transporter (Homo sapiens) (UniProt P23975); assay: Binding affinity to human norepinephrine transporter at 10 uM by radioligand binding assay
Sodium-dependent noradrenaline transporter (Homo sapiens), sequence (P23975 whole entry): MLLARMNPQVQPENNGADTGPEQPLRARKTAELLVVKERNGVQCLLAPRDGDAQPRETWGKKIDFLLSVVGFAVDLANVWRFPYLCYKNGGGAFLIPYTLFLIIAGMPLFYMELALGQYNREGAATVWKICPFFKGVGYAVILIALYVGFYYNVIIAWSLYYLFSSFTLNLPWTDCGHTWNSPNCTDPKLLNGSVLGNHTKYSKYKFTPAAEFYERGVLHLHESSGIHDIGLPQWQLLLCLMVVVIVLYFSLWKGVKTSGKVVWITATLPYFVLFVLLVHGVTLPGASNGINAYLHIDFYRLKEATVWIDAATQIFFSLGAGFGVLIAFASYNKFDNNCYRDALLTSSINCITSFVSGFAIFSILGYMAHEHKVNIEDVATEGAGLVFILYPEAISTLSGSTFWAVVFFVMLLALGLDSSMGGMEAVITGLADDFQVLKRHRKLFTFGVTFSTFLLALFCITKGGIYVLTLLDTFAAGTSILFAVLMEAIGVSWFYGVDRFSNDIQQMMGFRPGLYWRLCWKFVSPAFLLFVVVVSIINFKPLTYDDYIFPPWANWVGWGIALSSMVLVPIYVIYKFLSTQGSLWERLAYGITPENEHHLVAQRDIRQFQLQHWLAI

[8] = molecular target: Transient receptor potential cation channel subfamily V member 1 (Homo sapiens) (UniProt Q8NER1); assay: Agonist activity against human TRPV1 receptor at 10 uM
Transient receptor potential cation channel subfamily V member 1 (Homo sapiens), sequence (Q8NER1 whole entry): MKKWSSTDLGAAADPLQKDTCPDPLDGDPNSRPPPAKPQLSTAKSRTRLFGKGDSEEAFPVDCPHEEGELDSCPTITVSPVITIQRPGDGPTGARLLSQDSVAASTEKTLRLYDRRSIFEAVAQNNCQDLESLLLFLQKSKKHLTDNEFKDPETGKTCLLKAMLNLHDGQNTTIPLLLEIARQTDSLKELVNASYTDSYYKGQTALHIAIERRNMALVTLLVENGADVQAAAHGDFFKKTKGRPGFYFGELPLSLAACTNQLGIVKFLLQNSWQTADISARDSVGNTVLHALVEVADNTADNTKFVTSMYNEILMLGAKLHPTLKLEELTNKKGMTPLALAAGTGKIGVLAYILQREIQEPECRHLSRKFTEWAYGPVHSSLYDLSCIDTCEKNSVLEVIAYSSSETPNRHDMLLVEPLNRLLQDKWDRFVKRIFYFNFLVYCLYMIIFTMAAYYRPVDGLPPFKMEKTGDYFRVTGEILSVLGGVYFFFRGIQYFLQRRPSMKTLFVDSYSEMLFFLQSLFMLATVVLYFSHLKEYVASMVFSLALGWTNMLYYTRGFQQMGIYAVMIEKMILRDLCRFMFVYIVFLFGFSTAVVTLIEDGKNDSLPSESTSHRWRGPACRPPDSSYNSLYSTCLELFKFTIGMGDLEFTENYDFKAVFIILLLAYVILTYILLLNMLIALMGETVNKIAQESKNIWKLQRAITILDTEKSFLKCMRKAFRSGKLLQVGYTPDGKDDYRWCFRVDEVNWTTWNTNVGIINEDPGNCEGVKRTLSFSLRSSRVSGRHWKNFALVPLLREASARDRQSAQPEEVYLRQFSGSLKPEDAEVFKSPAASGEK

[9] = molecular target: Thromboxane A2 receptor (Homo sapiens) (UniProt P21731); assay: Antagonist activity against human TP receptor at 10 uM; parameters: scale not given: the % may be the effect or the level left
[10] = molecular target: Transient receptor potential cation channel subfamily V member 1 (Homo sapiens) (UniProt Q8NER1); assay: Antagonist activity against human TRPV1 receptor at 10 uM; parameters: scale not given: the % may be the effect or the level left
[11] = molecular target: Polyunsaturated fatty acid lipoxygenase ALOX15B (Homo sapiens) (UniProt O15296); assay: Binding affinity to recombinant human 15-Lipoxygenase-2 at 10 uM
[12] = molecular target: Dual specificity calcium/calmodulin-dependent 3',5'-cyclic nucleotide phosphodiesterase 1B (Homo sapiens) (UniProt Q01064); assay: Binding affinity to human PDE1B at 10 uM
[13] = molecular target: M-phase inducer phosphatase 1 (Homo sapiens) (UniProt P30304); assay: Binding affinity to CDC25A (unknown origin) at 10 uM
[14] = molecular target: Amine oxidase [flavin-containing] A (Homo sapiens, UniProt P21397); assay: Binding affinity to human MAO-A at 10 uM
[15] = molecular target: Tyrosine 3-monooxygenase (Homo sapiens) (UniProt P07101); assay: Binding affinity to tyrosine hydroxylase (unknown origin) at 10 uM
[16] = molecular target: Protein deacetylase HDAC6 (Homo sapiens) (UniProt Q9UBN7); assay: Binding affinity to human HDAC6 at 10 uM
[17] = molecular target: Histone deacetylase 11 (Homo sapiens) (UniProt Q96DB2); assay: Binding affinity to human HDAC11 at 10 uM
[18] = tested on: Mus musculus; assay: In-vivo inhibition of COX in mouse plasma assessed as decrease in 6-keto-PGF1-alpha level at 1 mg/kg, iv after 1 hr by LC-MS/MS analysis; assay type: functional, organism-based
[19] = molecular target: Adenosine receptor A2a (Homo sapiens) (UniProt P29274); assay: Binding affinity to human adenosine A2A receptor at 10 uM by radioligand binding assay
Adenosine receptor A2a (Homo sapiens), sequence (P29274 whole entry): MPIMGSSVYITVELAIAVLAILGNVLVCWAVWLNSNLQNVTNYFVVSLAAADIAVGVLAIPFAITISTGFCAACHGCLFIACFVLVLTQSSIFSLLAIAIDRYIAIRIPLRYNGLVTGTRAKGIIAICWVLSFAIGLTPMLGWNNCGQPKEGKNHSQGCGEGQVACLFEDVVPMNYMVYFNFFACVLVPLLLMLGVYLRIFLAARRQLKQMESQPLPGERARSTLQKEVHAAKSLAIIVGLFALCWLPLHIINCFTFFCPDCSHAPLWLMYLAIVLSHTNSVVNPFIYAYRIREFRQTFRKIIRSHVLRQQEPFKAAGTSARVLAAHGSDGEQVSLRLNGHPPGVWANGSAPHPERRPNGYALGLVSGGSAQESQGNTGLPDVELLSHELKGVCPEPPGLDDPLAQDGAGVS

[20] = molecular target: Adrenergic receptor alpha-1 (Homo sapiens) (UniProt P35348+P25100+P35368); assay: Binding affinity to human alpha-1 adrenergic receptor (unknown origin) at 10 uM by radioligand binding assay
[21] = molecular target: Adrenergic receptor alpha-2 (Homo sapiens) (UniProt P08913+P18825+P18089); assay: Binding affinity to alpha-2 adrenergic receptor (unknown origin) at 10 uM by radioligand binding assay
[22] = molecular target: Beta-2 adrenergic receptor (Homo sapiens) (UniProt P07550); assay: Binding affinity to beta-2 adrenergic receptor (unknown origin) at 10 uM by radioligand binding assay
Beta-2 adrenergic receptor (Homo sapiens), sequence (P07550 whole entry, looked up): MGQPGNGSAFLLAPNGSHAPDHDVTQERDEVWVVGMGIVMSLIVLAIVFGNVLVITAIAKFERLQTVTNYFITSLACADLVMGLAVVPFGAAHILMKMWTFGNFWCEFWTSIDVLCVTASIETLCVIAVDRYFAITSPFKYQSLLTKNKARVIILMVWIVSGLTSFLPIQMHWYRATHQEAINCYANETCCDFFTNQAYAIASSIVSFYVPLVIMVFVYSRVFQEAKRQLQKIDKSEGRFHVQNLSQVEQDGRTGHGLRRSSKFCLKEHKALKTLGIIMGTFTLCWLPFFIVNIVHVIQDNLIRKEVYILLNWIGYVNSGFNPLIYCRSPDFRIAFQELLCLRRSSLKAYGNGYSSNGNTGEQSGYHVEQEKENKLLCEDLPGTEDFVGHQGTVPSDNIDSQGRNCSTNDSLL

[23] = species: Homo sapiens; assay: Binding affinity to central-type benzodiazepine receptor (unknown origin) at 10 uM by radioligand binding assay
[24] = molecular target: Cannabinoid receptor 2 (Homo sapiens) (UniProt P34972); assay: Binding affinity to human cannabinoid receptor 2 at 10 uM by radioligand binding assay
[25] = molecular target: D(2) dopamine receptor (Homo sapiens) (UniProt P14416); assay: Binding affinity to human dopamine D2S receptor at 10 uM by radioligand binding assay
[26] = molecular target: D(4) dopamine receptor (Homo sapiens) (UniProt P21917); assay: Binding affinity to human dopamine D4.4 receptor at 10 uM by radioligand binding assay
D(4) dopamine receptor (Homo sapiens), sequence (P21917 whole entry): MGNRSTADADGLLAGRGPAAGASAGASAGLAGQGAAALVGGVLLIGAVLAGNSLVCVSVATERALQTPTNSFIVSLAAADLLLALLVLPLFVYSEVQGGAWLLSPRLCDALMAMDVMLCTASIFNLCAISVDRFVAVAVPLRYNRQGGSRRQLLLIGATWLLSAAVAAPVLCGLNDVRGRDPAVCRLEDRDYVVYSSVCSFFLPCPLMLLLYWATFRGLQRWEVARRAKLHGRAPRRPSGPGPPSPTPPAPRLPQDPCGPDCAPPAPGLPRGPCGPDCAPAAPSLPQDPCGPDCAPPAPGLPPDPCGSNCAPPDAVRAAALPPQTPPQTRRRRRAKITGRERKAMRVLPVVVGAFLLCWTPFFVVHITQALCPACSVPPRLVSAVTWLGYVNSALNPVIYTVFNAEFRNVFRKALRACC

[27] = species: Homo sapiens; assay: Binding affinity to GABA receptor (unknown origin) at 10 uM by radioligand binding assay
[28] = species: Homo sapiens; assay: Binding affinity to kainate receptor (unknown origin) at 10 uM by radioligand binding assay
[29] = molecular target: Histamine H1 receptor (Homo sapiens) (UniProt P35367); assay: Binding affinity to human histamine H1 receptor at 10 uM by radioligand binding assay
Histamine H1 receptor (Homo sapiens), sequence (P35367 whole entry): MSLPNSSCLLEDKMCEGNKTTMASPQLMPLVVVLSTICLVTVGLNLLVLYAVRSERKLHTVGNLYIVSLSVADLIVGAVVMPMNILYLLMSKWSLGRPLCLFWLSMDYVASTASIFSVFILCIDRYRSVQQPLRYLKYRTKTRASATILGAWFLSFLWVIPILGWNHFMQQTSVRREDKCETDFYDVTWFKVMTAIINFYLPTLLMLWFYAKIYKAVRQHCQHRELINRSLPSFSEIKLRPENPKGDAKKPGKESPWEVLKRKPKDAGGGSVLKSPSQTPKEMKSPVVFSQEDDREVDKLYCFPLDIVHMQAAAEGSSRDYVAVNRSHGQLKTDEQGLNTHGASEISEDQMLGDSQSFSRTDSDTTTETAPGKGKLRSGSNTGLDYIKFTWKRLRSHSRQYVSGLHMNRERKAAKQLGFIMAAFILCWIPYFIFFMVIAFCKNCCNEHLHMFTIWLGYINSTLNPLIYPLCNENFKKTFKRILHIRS

[30] = species: Homo sapiens; assay: Binding affinity to I2 imidazoline binding site (unknown origin) at 10 uM by radioligand binding assay
[31] = molecular target: Melanocortin receptor 4 (Homo sapiens) (UniProt P32245); assay: Binding affinity to human melanocortin-4 receptor at 10 uM by radioligand binding assay
[32] = molecular target: Melatonin receptor type 1A (Homo sapiens) (UniProt P48039); assay: Binding affinity to human melatonin receptor type 1 at 10 uM by radioligand binding assay
[33] = molecular target: Opioid receptors; mu/kappa/delta (Homo sapiens) (UniProt P41145+P41143+P35372); assay: Binding affinity to opioid receptor (unknown origin) at 10 uM by radioligand binding assay
Opioid receptors; mu/kappa/delta (Homo sapiens), sequence (P35372 whole entry, looked up): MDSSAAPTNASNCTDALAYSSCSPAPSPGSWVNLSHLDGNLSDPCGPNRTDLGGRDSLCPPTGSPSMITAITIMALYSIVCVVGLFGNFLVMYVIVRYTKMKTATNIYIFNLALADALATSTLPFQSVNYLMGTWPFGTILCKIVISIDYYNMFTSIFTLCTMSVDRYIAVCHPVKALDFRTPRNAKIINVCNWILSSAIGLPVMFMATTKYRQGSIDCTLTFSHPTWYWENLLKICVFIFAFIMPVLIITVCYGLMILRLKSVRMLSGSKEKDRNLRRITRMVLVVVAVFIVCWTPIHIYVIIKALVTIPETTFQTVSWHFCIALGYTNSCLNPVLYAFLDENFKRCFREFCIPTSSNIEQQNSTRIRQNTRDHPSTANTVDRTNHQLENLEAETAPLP
Opioid receptors; mu/kappa/delta (Homo sapiens), sequence (P41143 whole entry, looked up): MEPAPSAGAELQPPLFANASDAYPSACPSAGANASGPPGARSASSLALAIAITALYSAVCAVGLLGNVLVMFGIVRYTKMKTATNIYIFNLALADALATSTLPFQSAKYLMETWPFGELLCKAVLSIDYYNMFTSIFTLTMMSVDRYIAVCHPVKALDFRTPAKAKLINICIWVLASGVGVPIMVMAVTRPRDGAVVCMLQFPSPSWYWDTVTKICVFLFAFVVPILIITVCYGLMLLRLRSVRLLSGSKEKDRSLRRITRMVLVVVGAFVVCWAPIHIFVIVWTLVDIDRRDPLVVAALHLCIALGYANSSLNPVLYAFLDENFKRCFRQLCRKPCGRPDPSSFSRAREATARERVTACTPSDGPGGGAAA
Opioid receptors; mu/kappa/delta (Homo sapiens), sequence (P41145 whole entry, looked up): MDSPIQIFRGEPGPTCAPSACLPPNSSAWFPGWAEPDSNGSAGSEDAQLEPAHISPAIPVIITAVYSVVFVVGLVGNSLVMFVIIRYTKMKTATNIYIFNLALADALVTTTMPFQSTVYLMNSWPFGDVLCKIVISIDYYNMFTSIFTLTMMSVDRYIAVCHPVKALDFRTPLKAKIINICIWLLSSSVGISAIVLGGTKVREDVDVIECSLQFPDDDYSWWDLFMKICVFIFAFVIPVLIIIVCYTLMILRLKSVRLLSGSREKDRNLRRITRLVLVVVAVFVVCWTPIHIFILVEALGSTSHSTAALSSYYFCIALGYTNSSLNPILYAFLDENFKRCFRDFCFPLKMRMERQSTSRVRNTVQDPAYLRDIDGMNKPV

[34] = molecular target: Prostaglandin E2 receptor EP3 subtype (Homo sapiens) (UniProt P43115); assay: Binding affinity to human EP3 receptor at 10 uM by radioligand binding assay
[35] = molecular target: Proteinase-activated receptor 2 (Homo sapiens) (UniProt P55085); assay: Binding affinity to human PAR2 receptor at 10 uM by radioligand binding assay

CCCCCCNC(=O)Oc1cccc(-c2ccc([C@H](C)C(=O)O)cc2F)c1
Activity [1]: 17.7%
Activity [2]: -10.5%
Activity [3]: -14.9%
Activity [4]: -19.3%
Activity [5]: -9.9%
Activity [6]: -10.6%
Activity [7]: 7%
Activity [8]: -3.2%
Activity [9]: 2.9%
Activity [10]: 17.9%
Activity [11]: -6.4%
Activity [12]: 28.3%
Activity [13]: -6.3%
Activity [14]: -11.2%
Activity [15]: 0.8%
Activity [16]: -10.6%
Activity [17]: -52%
inhibition [18]: Active
Activity [19]: -7.3%
Activity [20]: -3.8%
Activity [21]: -13.6%
Activity [22]: -7.5%
Activity [23]: -51.5%
Activity [24]: -3%
Activity [25]: -5%
Activity [26]: -4.4%
Activity [27]: -9.5%
Activity [28]: 17.1%
Activity [29]: 1.8%
Activity [30]: -1.8%
Activity [31]: 0.9%
Activity [32]: -9.9%
Activity [33]: 15.5%
Activity [34]: 10.9%
Activity [35]: 3.2%
